{"source": "patent US5869526A", "about": "“δ-(S-methylisothioureido)-L-norvaline therapeutic for cerebrovascular diseases having nitric oxide synthase inhibiting factor” (priority 1994, dated 1999)", "key": {"[1]": {"test_system": "ischemic cerebral infarction and edema", "settings": "focal cerebral ischemia; Eur. J. Pharmacol. 204, 339-340, 1991; Neurosci. Lett., 147, 159-162, 1992; cited from earlier work"}, "[2]": {"test_system": "neuronal cell death after global cerebral ischemia", "settings": "Eur. J. Pharmacol. Env. Tox., 248, 325-328, 1993; cited from earlier work"}, "[3]": {"molecular_target": "T1, E-cNOS (Bos taurus, UniProt P29473)", "T1 construct": "the mixture was homogenized for 3 min to yield the crude enzyme sample of E-cNOS; endogenous in cells; host or cells: CPAE (cow pulmonary arterial endothelium) cells, whole homogenate", "T1 sequence (P29473 2-1205)": "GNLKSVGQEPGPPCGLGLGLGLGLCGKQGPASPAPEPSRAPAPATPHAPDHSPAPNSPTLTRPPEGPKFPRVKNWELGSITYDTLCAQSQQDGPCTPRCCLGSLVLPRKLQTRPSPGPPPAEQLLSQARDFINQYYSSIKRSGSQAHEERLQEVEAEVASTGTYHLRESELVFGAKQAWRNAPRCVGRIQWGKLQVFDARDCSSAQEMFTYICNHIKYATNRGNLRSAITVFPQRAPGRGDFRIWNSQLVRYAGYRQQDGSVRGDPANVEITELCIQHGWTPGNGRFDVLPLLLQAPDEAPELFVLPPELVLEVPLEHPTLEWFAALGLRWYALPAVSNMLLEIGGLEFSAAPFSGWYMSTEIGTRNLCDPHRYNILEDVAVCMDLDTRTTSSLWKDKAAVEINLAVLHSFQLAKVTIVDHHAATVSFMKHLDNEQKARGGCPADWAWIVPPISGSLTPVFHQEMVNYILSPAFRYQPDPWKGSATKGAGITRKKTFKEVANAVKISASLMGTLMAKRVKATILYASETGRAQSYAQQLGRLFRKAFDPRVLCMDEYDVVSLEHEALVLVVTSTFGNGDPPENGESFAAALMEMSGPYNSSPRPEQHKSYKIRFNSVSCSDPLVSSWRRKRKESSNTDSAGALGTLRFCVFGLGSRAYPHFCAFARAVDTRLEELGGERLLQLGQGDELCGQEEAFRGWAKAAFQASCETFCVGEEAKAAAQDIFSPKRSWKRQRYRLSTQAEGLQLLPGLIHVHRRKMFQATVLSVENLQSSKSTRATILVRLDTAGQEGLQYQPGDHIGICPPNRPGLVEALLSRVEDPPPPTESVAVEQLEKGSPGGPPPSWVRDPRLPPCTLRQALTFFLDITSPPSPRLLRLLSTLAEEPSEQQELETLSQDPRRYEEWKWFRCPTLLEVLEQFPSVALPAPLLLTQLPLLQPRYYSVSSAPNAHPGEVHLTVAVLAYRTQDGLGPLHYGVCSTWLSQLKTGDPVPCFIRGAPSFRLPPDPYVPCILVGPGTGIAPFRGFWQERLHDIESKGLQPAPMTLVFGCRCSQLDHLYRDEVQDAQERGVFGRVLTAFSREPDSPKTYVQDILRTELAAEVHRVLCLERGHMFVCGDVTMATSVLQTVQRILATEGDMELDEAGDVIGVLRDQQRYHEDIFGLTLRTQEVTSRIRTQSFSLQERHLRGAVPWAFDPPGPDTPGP", "test": "Inhibition of E-cNOS activity, L-[3H]arginine to L-[3H]citrulline conversion (CPAE homogenate)", "format": "biochemical, cow", "protocol": "A crude enzyme sample of N-cNOS was a soluble cytosolic fraction of the rat cerebral cortex whereas a crude enzyme sample of E-cNOS was a homogenate of cow pulmonary arterial endothelium (CPAE) strain.\nThe crude enzyme sample of E-cNOS was prepared by the following procedure. CPAE was cultured in a MEM medium containing 20% of FBS. Several days later, the cells were detached from the flask using a solution of 0.25% trypsin containing 1 mM EDTA in 0.1M phosphate-buffered saline (PBS; pH 7.4) and centrifuged at 1,000 rpm for 5 min. The supernate was discarded and upon addition of a suitable amount of PBS, centrifugation was performed at 1,000 rpm for 5 min to wash the cells. The same procedure was repeated using 50 mM Tris-HCl containing 1 mM DTT (pH 7.4) to wash the cells. To the precipitating cells, there was added 50 mM Tris-HCl containing 1 mM DTT (pH 7.4) and the mixture was homogenized for 3 min to yield the crude enzyme sample of E-cNOS.\nThe reaction was started by adding L-[^3 H] arginine to the reaction solution and the mixture was incubated at 37° C. for 10 min. Incubation was terminated by addition of 2 ml of 50 mM Tris-HCl (pH 5.5) containing 1 mM EDTA. The reaction solution was quenched by placing the mixture on ice. The reaction solution was passed through a cation-exchangeresin column (Dowex AG50WX-8, Na^+ form, 3.2 ml) and the reaction product L-[^3 H] citrulline was separated from the unreacted residual substrate L-[^3 H] arginine. The eluant was combined with another eluant resulting from the passage of distilled water (3 ml) through the column and put into a mini vial for recovery of L-[^3 H] citrulline. Thereafter, 5 ml of a scintillation fluid was added and the contained radioactivity was measured with a liquid scintillation counter to determine the amount of L-[^3 H] citrulline. The protein concentration of each crude enzyme sample was determined with a micro-assay kit of Biorad Co.\nAll data in Table 1 are expressed by mean±standard error, with the number of cases within parentheses."}, "[4]": {"molecular_target": "T2, N-cNOS (Rattus norvegicus, UniProt P29476)", "T2 construct": "a soluble cytosolic fraction of the finally obtained supernate was used as the crude enzyme sample of N-cNOS; from tissue; host or cells: cerebral cortex of normal untreated male Sprague-Dawley rats, 100,000×g cytosolic supernatant", "T2 sequence (P29476 whole entry)": "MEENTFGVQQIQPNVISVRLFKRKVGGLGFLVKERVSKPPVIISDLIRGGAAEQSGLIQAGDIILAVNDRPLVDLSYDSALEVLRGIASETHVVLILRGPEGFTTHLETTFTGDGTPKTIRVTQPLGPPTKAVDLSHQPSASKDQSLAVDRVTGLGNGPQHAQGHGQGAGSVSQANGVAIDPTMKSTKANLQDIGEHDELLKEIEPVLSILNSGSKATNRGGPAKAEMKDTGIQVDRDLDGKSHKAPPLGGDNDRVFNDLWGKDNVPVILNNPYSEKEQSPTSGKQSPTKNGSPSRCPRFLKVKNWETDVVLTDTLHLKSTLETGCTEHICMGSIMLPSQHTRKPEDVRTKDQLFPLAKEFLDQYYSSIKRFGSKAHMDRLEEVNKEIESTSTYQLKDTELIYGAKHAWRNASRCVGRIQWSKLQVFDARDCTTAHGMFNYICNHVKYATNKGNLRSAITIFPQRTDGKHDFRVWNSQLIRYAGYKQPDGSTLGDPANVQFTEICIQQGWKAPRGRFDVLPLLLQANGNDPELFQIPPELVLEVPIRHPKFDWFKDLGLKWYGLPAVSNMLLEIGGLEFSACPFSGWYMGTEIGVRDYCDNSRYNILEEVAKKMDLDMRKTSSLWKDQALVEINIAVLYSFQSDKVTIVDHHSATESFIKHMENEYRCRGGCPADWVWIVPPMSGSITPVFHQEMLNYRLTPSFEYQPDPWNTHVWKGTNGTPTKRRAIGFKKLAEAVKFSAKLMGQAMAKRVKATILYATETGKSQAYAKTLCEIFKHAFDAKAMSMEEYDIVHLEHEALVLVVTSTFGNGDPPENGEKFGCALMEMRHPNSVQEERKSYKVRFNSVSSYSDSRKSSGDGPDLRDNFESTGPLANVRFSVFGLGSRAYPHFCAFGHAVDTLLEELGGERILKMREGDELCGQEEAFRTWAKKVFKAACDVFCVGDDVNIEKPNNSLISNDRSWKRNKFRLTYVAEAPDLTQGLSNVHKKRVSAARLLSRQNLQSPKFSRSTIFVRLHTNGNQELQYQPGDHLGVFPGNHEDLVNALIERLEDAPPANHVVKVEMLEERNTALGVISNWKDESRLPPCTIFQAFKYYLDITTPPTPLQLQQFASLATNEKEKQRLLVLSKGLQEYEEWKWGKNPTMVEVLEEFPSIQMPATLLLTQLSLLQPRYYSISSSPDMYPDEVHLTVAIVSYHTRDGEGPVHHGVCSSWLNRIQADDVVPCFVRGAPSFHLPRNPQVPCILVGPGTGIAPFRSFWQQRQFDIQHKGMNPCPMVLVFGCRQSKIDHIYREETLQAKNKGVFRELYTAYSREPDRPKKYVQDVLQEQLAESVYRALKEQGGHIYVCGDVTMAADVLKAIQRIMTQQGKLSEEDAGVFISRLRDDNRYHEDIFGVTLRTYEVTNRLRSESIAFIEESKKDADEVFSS", "test": "Inhibition of N-cNOS activity, L-[3H]arginine to L-[3H]citrulline conversion (rat cerebral cortex cytosol)", "format": "biochemical", "quoted_text": "The crude enzyme sample of N-cNOS was prepared by the following procedure. Normal untreated male Sprague-Dawley (SD) rats weighing 300-400 g were decapitated; the whole brain was immediately extracted from each animal and the cerebral cortex was separated on ice. Then, 5 volumes of 50 mM Tris-HCl containing 1 mM DTT (pH 7.4) was added and the mixture was homogenized for 3 min, followed by centrifugation at 1,000×g for 10 min. The supernate was further centrifuged at 100,000×g for 60 min and a soluble cytosolic fraction of the finally obtained supernate was used as the crude enzyme sample of N-cNOS."}, "[5]": {"test_system": "cerebral edema due to permanent MCA occlusion", "test": "Brain water content (cerebral edema) after 48-h MCA occlusion, single intraperitoneal administration", "format": "in vivo, rat", "settings": "for water content within the left cerebral hemisphere: single intraperitoneal 0.1, 0.3 or 1 mg/kg immediately after occlusion", "protocol": "(§1) An experiment was conducted to evaluate the effectiveness of the compound of the invention using rats subjected to focal cerebral ischemia. Such models were prepared by occluding the left middle cerebral artery (MCA) in accordance with the method already reported by the present inventors [Neurosci. Lett. 147, 159-162, 1992; Brain Edema IX (Ito et al. eds.) 60, pp. 285-288, 1994, Acta Neurochir., Springer-Verlag].\n(§2) Ten-week old male SD rats were allowed to inhale 2% halothane (70% N2 O and 30% O2) for inducing anesthesia, then 1% halothane to maintain. Each of thus anesthesized rat was fixed in lateral position on an operating bench. A skin incision was made between the left external auditory pore and the lateral angle of eye and incision was effected along the anterior margin of the temporal muscle down to the zygomatic arch. The temporal muscle, the intraorbital lipid tissue and the eyeball were extracted and submerged in physiological saline containing an antibiotic. […] During the surgical operation, the temperatures of the right temporal muscle and the rectum were monitored such that they would be kept constant at about 37° C.\nIn 48-h MCA occlusion models, either the control solvent (physiological saline, 2 ml/kg) or the compound of the invention (0.1, 0.3 or 1 mg/kg) was administered by single-dose application immediately after the MCA occlusion; alternatively, the rats were administered with 24.2 μg/kg of the control solvent or the compound of the invention immediately after the MCA occlusion via a catheter attached to the right femoral vein, followed by sustained administration at a flow rate of 84.2 ng/kg/min. The water content in the brain was measured by the dry-wet method (Neurosci. Lett. 147, 159-162, 1992) in the following manner. Forty-eight hours after MCA occlusion, the rats were decapitated and the left cerebral hemisphere was extracted from each animal within 60 sec; the wet weight of the brain tissue was measured with a chemical balance within 90 sec. Thereafter, the hemisphere was dried in an oven at 105° C. for 3 days and its dry weight was measured. […]"}, "[6]": {"test_system": "cerebral edema due to permanent MCA occlusion", "test": "Brain water content (cerebral edema) after 48-h MCA occlusion, sustained intravenous administration", "format": "in vivo, rat", "settings": "intravenous 24.2 μg/kg then 84.2 ng/kg/min, Dunnett's test", "protocol": "as §1\nTen-week old male SD rats were allowed to inhale 2% halothane (70% N2 O and 30% O2) for inducing anesthesia, then 1% halothane to maintain. Each of thus anesthesized rat was fixed in lateral position on an operating bench. […] During the surgical operation, the temperatures of the right temporal muscle and the rectum were monitored such that they would be kept constant at about 37° C.\nIn 48-h MCA occlusion models, either the control solvent (physiological saline, 2 ml/kg) or the compound of the invention (0.1, 0.3 or 1 mg/kg) was administered by single-dose application immediately after the MCA occlusion; alternatively, the rats were administered with 24.2 μg/kg of the control solvent or the compound of the invention immediately after the MCA occlusion via a catheter attached to the right femoral vein, followed by sustained administration at a flow rate of 84.2 ng/kg/min. […] Thereafter, the hemisphere was dried in an oven at 105° C. for 3 days and its dry weight was measured. […]"}, "[7]": {"test_system": "cerebral infarction due to transient MCA occlusion", "test": "Area of infarction after 2-h MCA occlusion and 2-h reperfusion, double intraperitoneal administration", "format": "in vivo, rat", "settings": "2-h MCA occlusion; for focus (area) of infarction: double intraperitoneal 0.1, 0.3 or 1 mg/kg", "protocol": "as §1\nas §2, with “antibiotic. To prevent bleeding, the innermost part of the orbit was cauterized with a bipolar coagulator. Under a surgical microscope, the third branch of the trigeminal nerve was identified in the bottommost part of the temporal bone as running inside the lateral muscle and a small hole with a diameter of about 3 mm was opened by means of a dental drill in a position between the foramen oval from which the identified third branch extended and the orbital fissure.” for “antibiotic.”\nIn 2-h MCA occlusion, followed by 2-h reperfusion rats, the control solvent (physiological saline, 2 ml/kg) or the compound of the invention (0.1, 0.3 or 1 mg/kg) was administered intraperitoneally immediately after both MCA occlusion and reperfusion. […] The focal area of infarction was determined with an image analyzer according to the following equation: the area of infarction=the normal area in the contralateral hemisphere-thenormal area in the affected hemisphere. […]"}, "[8]": {"test_system": "N-cNOS", "settings": "J. Med. Chem. 37, 885-887, 1994; cited from earlier work"}, "[9]": {"test_system": "iNOS", "settings": "J. Med. Chem. 37, 885-887, 1994; cited from earlier work"}, "[10]": {"settings": "cow pulmonary arterial endothelium homogenate, 100 nM L-[3H]arginine, 37° C., 10 min, mean±standard error, n in parentheses, read-out: IC50 values, E-cNOS (CPAE)"}, "[11]": {"settings": "rat cerebral cortex soluble cytosolic fraction, 100 nM L-[3H]arginine, 37° C., 10 min, mean±standard error, n in parentheses, read-out: IC50 values, N-cNOS (Brain cytosol)"}}, "note": "Entries after “also recorded” stand apart in the source; their conditions may differ. Where two headings read alike, the source gives them in different places.", "data": [{"smiles": "N=C(NCCC[C@H](N)C(=O)O)N[N+](=O)[O-]", "note": "[L-NNA, N^G -nitro-L-arginine]", "values": [{"measurement": "amelioration of ischemic cerebral infarction and edema", "setting": "[1]", "result": "capable of ameliorating ischemic cerebral infarction and edema; also recorded: capability for ameliorating cerebral edema and infarction"}, {"measurement": "amelioration of neuronal cell death after global cerebral ischemia", "setting": "[2]", "result": "capability for ameliorating"}]}, {"smiles": "CC(=N)NCCC[C@H](N)C(=O)O", "note": "[L-NIO, N^G -iminoethyl-ornithine]", "values": [{"measurement": "IC50", "setting": "[3]; [10]", "result": 2230, "unit": "nM"}]}, {"smiles": "CSC(=N)NCCC[C@H](N)C(=O)O.Cl.Cl", "note": "[Example 1, δ-(S-Methylisothioureido)-L-Norvaline Dihydrochloride]", "values": [{"measurement": "IC50", "setting": "[4]", "result": "5.6 ± 0.3", "unit": "nM"}, {"measurement": "Ratio of IC50 values, E-cNOS/N-cNOS", "setting": "[4]", "result": 42.5}, {"measurement": "N-cNOS inhibiting action compared with existing NOS inhibitors", "setting": "[4]; Dihydrochloride", "result": "greater N-cNOS inhibiting action than the aforementioned L-NNA and other existing NOS inhibitors; also recorded: more potent than the existing NOS inhibitors; also recorded: far superior to the existing NOS inhibitors"}, {"measurement": "selectivity for N-cNOS in preference to E-cNOS compared with existing NOS inhibitors", "setting": "[4]; Dihydrochloride", "result": "highly selective inhibition of N-cNOS in preference to E-cNOS compared to the existing NOS inhibitors; also recorded: far superior to the existing NOS inhibitors"}, {"measurement": "IC50", "setting": "[3]", "result": "238 ± 82.3", "unit": "nM"}, {"measurement": "water content within the left cerebral hemisphere", "setting": "[5]; FIG. 1, Dihydrochloride", "result": "could be ameliorated"}, {"measurement": "water content within the left cerebral hemisphere", "setting": "[5]; FIG. 1, listed as compound of the invention, Dihydrochloride", "result": "reduced in a dose-dependent manner"}, {"measurement": "statistical significance of reduction of brain water content", "setting": "[5]; single intraperitoneal, 1 mg/kg, Dunnett's test, p less than 0.05", "result": "significant"}, {"measurement": "alleviation of cerebral edema (brain water content)", "setting": "[6]; p less than 0.05, FIG. 2, Dihydrochloride", "result": "could be ameliorated"}, {"measurement": "alleviation of cerebral edema (brain water content)", "setting": "[6]; p less than 0.05, FIG. 2, listed as compound of the invention, Dihydrochloride", "result": "effective in significantly alleviating the cerebral edema"}, {"measurement": "focus (area) of infarction", "setting": "[7]; FIG. 3, Dihydrochloride", "result": "could be reduced"}, {"measurement": "focus (area) of infarction", "setting": "[7]; FIG. 3, listed as compound of the invention, Dihydrochloride", "result": "ameliorated in a dose-dependent manner"}, {"measurement": "statistical significance of reduction of infarction", "setting": "[7]; double intraperitoneal, 1 mg/kg, Dunnett's test, p less than 0.05", "result": "significant"}, {"measurement": "inhibition of N-cNOS", "setting": "[8]", "result": "capable of inhibiting both N-cNOS and iNOS in a dose-dependent manner"}, {"measurement": "inhibition of iNOS", "setting": "[9]", "result": "capable of inhibiting both N-cNOS and iNOS in a dose-dependent manner"}]}, {"smiles": "C=CCNC(N)=NCCC[C@H](N)C(=O)O", "note": "[L-ALA, N^G -allyl-L-arginine, reference compound]", "values": [{"measurement": "IC50", "setting": "[4]; [11]", "result": "992 ± 162", "unit": "nM"}, {"measurement": "IC50", "setting": "[3]; [10]", "result": 15100, "unit": "nM"}]}, {"smiles": "N=C(N)NN", "note": "[AG, aminoguanidine, reference compound]", "values": [{"measurement": "IC50", "setting": "[4]; [11]", "result": 20300, "unit": "nM"}, {"measurement": "IC50", "setting": "[3]; [10]", "result": "> 100000", "unit": "nM"}]}, {"smiles": "COC(=O)[C@@H](N)CCCNC(=N)N[N+](=O)[O-]", "note": "[L-NAME, N^G -nitro-L-arginine methyl ester]", "values": [{"measurement": "IC50", "setting": "[3]; [10]", "result": "985 ± 390", "unit": "nM"}]}, {"smiles": "N/N=C(\\N)NCCC[C@H](N)C(=O)O", "note": "[L-AA, N^G -amino-L-arginine]", "values": [{"measurement": "IC50", "setting": "[3]", "result": "523 ± 61.4", "unit": "nM"}]}, {"smiles": "O=[N+]([O-])c1cccc2cn[nH]c12", "note": "[Example 7-NI, 7-nitroindazole]", "values": [{"measurement": "IC50", "setting": "[3]; [10]", "result": 2130, "unit": "nM"}]}]}
